Data published in the supplement of paper PMC13380429.

What was measured:
[1] = tested on: A549-ACE2 infected with SARS-CoV-2; assay: cell count relative to DMSO; higher = less toxic; settings: 24 h
Caco-2 [2] = assay: cell viability relative to DMSO; higher = less toxic; settings: 72 h
Calu-3 [3] = assay: as above; settings: 72 h
HepG2 [4] = assay: as above; settings: 72 h
U2OS [5] = assay: as above; settings: 72 h
Vero E6 [6] = assay: as above; settings: 72 h
[7] = tested on: A549-ACE2 infected with SARS-CoV-2; assay: SARS-CoV-2 infection rate relative to DMSO; higher = more infection; settings: 24 h
A549-ACE2 [8] = assay: phospholipidosis EC50; higher = less potent phospholipidosis inducer
A549-ACE2 [9] = assay: drug-induced phospholipidosis relative to tamoxifen; higher = more phospholipidosis
[10] = tested on: A549-ACE2 infected with SARS-CoV-2; assay: morphology score (similarity to uninfected cells); higher = more like uninfected cells; settings: 24 h
Calu-3 [11] = assay: relative viability EC50 (midpoint between 100% and the lowest measured viability); higher = less toxic; settings: 72 h
HepG2 [12] = assay: as above; settings: 72 h
Vero E6 [13] = assay: as above; settings: 72 h
Caco-2 [14] = assay: drug sensitivity score (DSS) for viability; higher = more toxic; extreme values may be limits of the assay; settings: 72 h
Calu-3 [15] = assay: as above; settings: 72 h
HepG2 [16] = assay: as above; settings: 72 h
U2OS [17] = assay: as above; settings: 72 h
Vero E6 [18] = assay: as above; settings: 72 h
Caco-2 [19] = assay: relative viability EC50 (midpoint between 100% and the lowest measured viability); higher = less toxic; settings: 72 h
U2OS [20] = assay: as above; settings: 72 h

OC(c1cc(C(F)(F)F)nc2c(C(F)(F)F)cccc12)C1CCCCN1 (centres undefined) [mefloquine]
Settings	SARS-CoV-2 infection rate [%]	cell count [%]	cell viability [%]	morphology score	phospholipidosis EC50 [µM]
A549-ACE2 [8], 24 h	–	–	–	–	1.57
A549-ACE2 [8], 48 h	–	–	–	–	2.78
A549-ACE2 [8], 72 h	–	–	–	–	3.29
Caco-2 [2], 1 nM	–	–	108	–	–
Caco-2 [2], 10 nM	–	–	103	–	–
Caco-2 [2], 100 nM	–	–	102	–	–
Caco-2 [2], 1000 nM	–	–	105	–	–
Caco-2 [2], 10000 nM	–	–	69.3	–	–
Calu-3 [3], 1 nM	–	–	110	–	–
Calu-3 [3], 10 nM	–	–	90.2	–	–
Calu-3 [3], 100 nM	–	–	105	–	–
Calu-3 [3], 1000 nM	–	–	103	–	–
Calu-3 [3], 10000 nM	–	–	76.9	–	–
HepG2 [4], 1 nM	–	–	98.1	–	–
HepG2 [4], 10 nM	–	–	89.9	–	–
HepG2 [4], 100 nM	–	–	98.9	–	–
HepG2 [4], 1000 nM	–	–	89.7	–	–
HepG2 [4], 10000 nM	–	–	10.8	–	–
U2OS [5], 1 nM	–	–	106	–	–
U2OS [5], 10 nM	–	–	99.6	–	–
U2OS [5], 100 nM	–	–	107	–	–
U2OS [5], 1000 nM	–	–	99.5	–	–
U2OS [5], 10000 nM	–	–	73	–	–
Vero E6 [6], 1 nM	–	–	101	–	–
Vero E6 [6], 10 nM	–	–	106	–	–
Vero E6 [6], 100 nM	–	–	102	–	–
Vero E6 [6], 1000 nM	–	–	103	–	–
Vero E6 [6], 10000 nM	–	–	78.7	–	–
[1], 0.1 µM	–	98	–	–	–
[1], 0.3 µM	–	98	–	–	–
[1], 1 µM	–	108	–	–	–
[1], 3 µM	–	122	–	–	–
[7], 0.1 µM	107	–	–	–	–
[7], 0.3 µM	94	–	–	–	–
[7], 1 µM	89	–	–	–	–
[7], 3 µM	32	–	–	–	–
[10], 0.1 µM	–	–	–	-0.29	–
[10], 0.3 µM	–	–	–	0.2	–
[10], 1 µM	–	–	–	0.27	–
[10], 3 µM	–	–	–	0.84	–

drug-induced phospholipidosis [%], A549-ACE2 [9]
Settings	0.3 µM	0.833333 µM	3.33333 µM	6.66667 µM	10 µM
24 h	2.22	17.4	75	83.8	88.4
48 h	3.66	13	67.8	86.7	102
72 h	5.04	11.3	58.8	87.9	97.7

Settings	drug sensitivity score	relative viability EC50 [µM]
Caco-2 [14]	1.1	–
Calu-3 [11]	–	> 10
Calu-3 [15]	0.6	–
HepG2 [12]	–	2.21
HepG2 [16]	6.7	–
U2OS [17]	1.1	–
Vero E6 [13]	–	> 10
Vero E6 [18]	0.5	–

CC(C)COc1ccc(CNC(=O)N(Cc2ccc(F)cc2)C2CCN(C)CC2)cc1 [pimavanserin]
Settings	SARS-CoV-2 infection rate, [7] [%]	cell count, [1] [%]	cell viability, Caco-2 [2] [%]	cell viability, Calu-3 [3] [%]	cell viability, HepG2 [4] [%]	cell viability, U2OS [5] [%]	cell viability, Vero E6 [6] [%]	morphology score, [10]
1 nM	–	–	105	100	102	99.4	101	–
10 nM	–	–	95.7	97	104	99.2	101	–
100 nM	–	–	105	95.1	104	92.2	108	–
0.3 µM	100	101	–	–	–	–	–	-0.07
1000 nM	–	–	110	95.2	103	99.2	99.4	–
10000 nM	–	–	85.7	86.2	86.2	92	98.4	–

A549-ACE2 [9], 0.3 µM
Settings	drug-induced phospholipidosis [%]
24 h	4.68
48 h	2.24
72 h	1.32

Settings	drug sensitivity score	relative viability EC50 [µM]
Caco-2 [14]	0.1	–
Caco-2 [19]	–	> 10
Calu-3 [11]	–	> 10
Calu-3 [15]	0.1	–
HepG2 [12]	–	> 10
HepG2 [16]	0.1	–
U2OS [17]	0	–
U2OS [20]	–	> 10
Vero E6 [13]	–	> 10
Vero E6 [18]	0	–
